Active and inactive are the calls of the source. The rule behind the calls is not given here.
Legend:
[1] = tested on: Human immunodeficiency virus 1; assay: Antiviral activity against HIV1 931N101 infected in human SupT1 cells assessed as inhibition of viral entry mesaured after 96 hrs by p24- ELISA assay; format: functional, organism-based; details: Human immunodeficiency virus 1, 931N101, SUP-T1, 96 h
[2] = Cytotoxicity against human SUP-T1 cells assessed as reduction in cell viability measured after 16 hrs by MTT assay; format: cell-based
SUP-T1 = assay: Inhibition of HIV1 gp120 interaction with CD4 in human SUP-T1 cells expressing CCR5, CXCR4 assessed as decrease in viral entry by fluorescent microscopic assay; format: cell-based; details: Human immunodeficiency virus 1
[3] = tested on: Human immunodeficiency virus 1; assay: Antiviral activity against HIV1 931N101 infected in human SupT1 cells assessed as inhibition of viral entry at 2.2 uM mesaured after 96 hrs by p24- ELISA assay relative to control; format: functional; details: Human immunodeficiency virus 1, 931N101, SUP-T1

Row | SMILES | IC50 [1] | CC50 at 16 h [2] | inhibition (SUP-T1) | inhibition at 2.2 µM [3]
1 | CCOC(=O)C1=C(C)NC(=O)NC1c1ccc(O)cc1 (configuration not stated) | 6 µM | 132 µM | – | –
2 | CCOC(=O)C1=C(C)NC(=S)NC1c1ccc(OC)cc1 (configuration not stated) | 4.5 µM | 110 µM | – | –
3 | CCOC(=O)C1=C(C)NC(=O)NC1c1ccc(O)c(OC)c1 (configuration not stated) | 8.5 µM | 141 µM | Active | –
4 | CCOC(=O)C1=C(C)NC(=O)NC1c1ccc(OC)cc1 (configuration not stated) | 6.2 µM | 103 µM | – | –
5 | CCOC(=O)C1=C(C)NC(=S)NC1c1cccc(Cl)c1 (configuration not stated) | 3.5 µM | 97.6 µM | – | –
6 | CCOC(=O)C1=C(C)NC(=S)NC1c1ccccc1C (configuration not stated) | 5.2 µM | 124 µM | – | –
7 | CCOC(=O)C1=C(C)NC(=O)NC1c1ccccc1C (configuration not stated) | 9.5 µM | 136 µM | – | –
8 | CCOC(=O)C1=C(C)NC(=S)NC1c1ccc(O)cc1 (configuration not stated) | 4 µM | 88.9 µM | – | –
9 | CCOC(=O)C1=C(C)NC(=S)NC1c1cc(Br)ccc1O (configuration not stated) | 3.7 µM | 83.4 µM | – | –
10 | CCOC(=O)C1=C(C)NC(=S)NC1c1ccc(O)c(OC)c1 (configuration not stated) | 2.2 µM | 101 µM | Active | 50%
11 | CCOC(=O)C1=C(C)NC(=S)NC1c1ccc(Br)cc1 (configuration not stated) | 4.2 µM | 136 µM | – | –
12 | CCOC(=O)C1=C(C)NC(=O)NC1c1cc(Br)ccc1O (configuration not stated) | 5.3 µM | 138 µM | – | –

Source: ChEMBL document CHEMBL5053552, “Design, Synthesis, and Antiviral activity of 1,2,3,4-Tetrahydropyrimidine derivatives acting as novel entry inhibitors to target at "Phe43 cavity" of HIV-1 gp120” (Bioorg Med Chem, 2021)
